Patent US10022453B2 (BAYER PHARMA AKTIENGESELLSCHAFT, priority 2013, dated 2018)

Legend:
[1] = biological target: T1, human kinesin spindle protein KSP/Eg5 (Homo sapiens, UniProt P52732); assay: Inhibition of the kinesin spindle protein KSP/Eg5 (ATPase, malachite green); assay type: biochemical; conditions: 10 nM KSP motor domain, 500 μM ATP, 2 h RT
T1 construct: The motor domain of the human kinesin spindle protein KSP/Eg5; purchased tebu-bio/Cytoskeleton Inc 027EG01-XL
T1 sequence (P52732 18-359 limits assumed): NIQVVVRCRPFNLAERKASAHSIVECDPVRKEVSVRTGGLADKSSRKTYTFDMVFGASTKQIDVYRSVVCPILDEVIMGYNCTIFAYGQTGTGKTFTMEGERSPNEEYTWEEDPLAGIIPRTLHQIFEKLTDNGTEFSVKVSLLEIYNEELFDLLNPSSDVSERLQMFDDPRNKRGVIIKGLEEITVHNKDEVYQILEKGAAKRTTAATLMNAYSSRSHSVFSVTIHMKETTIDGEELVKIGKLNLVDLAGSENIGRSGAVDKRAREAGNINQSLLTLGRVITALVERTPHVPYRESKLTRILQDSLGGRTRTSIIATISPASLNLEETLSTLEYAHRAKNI
In short: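 KSP/Eg5 motor domain (10 nM) preincubated 5 min at RT with 50 μg/ml taxol-stabilized bovine or porcine microtubules in 15 mM PIPES pH 6.8, 5 mM MgCl2, 10 mM DTT. IC50 = mean of three experiments.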

NCI-H292 = assay: Cytotoxic effects, MTT assay; assay type: cell-based; conditions: Homo sapiens, 72 h incubation
Method: The cells are cultivated by a standard method, as indicated in the […] (ATCC) for the respective cell lines.
At the end of the selected incubation time, the MTT reagent is incubated with the cells for 4 h, followed by lysis of the cells overnight by addition of the detergent. […] The proliferation of cells which were not treated with test substance but were otherwise identically treated was defined as the 100% figure.

[2] = Cell permeability, flux assay using Caco-2 cells; conditions: human, Caco-2

| SMILES | IC50 [1] [nM] | IC50 (NCI-H292) [nM] | Papp B→A at 2 h [2] [×10⁻⁶ cm/s] | efflux ratio at 2 h [2] |
| --- | --- | --- | --- | --- |
| CC(C)(C)[C@H](c1nc(-c2cc(F)ccc2F)cn1Cc1ccccc1)N(CCCN)C(=O)CSCCC(NC(=O)CCOCCOCCOCCOCCNC(=O)CCN1C(=O)CC(SC[C@H](N)C(=O)O)C1=O)C(=O)O.O=C(O)C(F)(F)F.O=C(O)C(F)(F)F (mixture of isomers) [Example 140, N-[19-(3(R/S)-[{(2R)-2-Amino-2-carboxyethyl]sulphanyl}-2,5-dioxopyrrolidin-1-yl)-17-oxo-4,7,10,13-tetraoxa-16-azanonadecan-1-oyl]-R/S-{2-[(3-aminopropyl){(1R)-1-[1-benzyl-4-(2,5-difluorophenyl)-1H-imidazol-2-yl]-2,2-dimethylpropyl}amino]-2-oxoethyl}homocysteine/trifluoroacetic acid (1:2)] | 2.51 | ≥ 500 | 0.17 | 1 |
| CC(C)(C)[C@H](c1nn(-c2cc(F)ccc2F)cc1Cc1ccccc1)N(CCCN)C(=O)CO [Example 96, N-(3-Aminopropyl)-N-{(1R)-1-[4-benzyl-1-(2,5-difluorophenyl)-1H-pyrazol-3-yl]-2,2-dimethylpropyl}-2-hydroxyacetamide] | 7.8 | 2.09 | 28.5 | 16 |
| CC(C)(C)[C@H](c1cc(-c2cc(F)ccc2F)cn1Cc1ccccc1)N(CCCN)C(=O)c1ccc(C(F)(F)F)cc1 [Example 189, N-(3-aminopropyl)-N-{(1R)-1-[1-benzyl-4-(2,5-difluorophenyl)-1H-pyrrol-2-yl]-2,2-dimethylpropyl}-4-(trifluoromethyl)benzamide] | 11.2 | 8.76 | – | – |
| CC(C)(C)[C@H](c1cc(-c2cc(F)ccc2F)cn1Cc1ccccc1)N(CCCN)C(=O)c1ccc(F)cc1F [Example 190] | 9.61 | 5.42 | – | – |
| CC(C)(C)[C@H](c1cc(-c2cc(F)ccc2F)cn1Cc1ccccc1)N(CC[C@H](N)C(=O)NCCC(=O)O)C(=O)CO [Example 200, N-{(2S)-2-Amino-4-[{(1R)-1-[1-benzyl-4-(2,5-difluorophenyl)-1H-pyrrol-2-yl]-2,2-dimethylpropyl}(glycoloyl)amino]butanoyl}-beta-alanine/trifluoroacetic acid (1:1)] | 0.108 | 140 | – | – |
| C[C@H](NC(=O)[C@@H](N)CCN(C(=O)CO)[C@@H](c1cc(-c2cc(F)ccc2F)cn1Cc1ccccc1)C(C)(C)C)C(=O)O [Example 202, N-{(2S)-2-Amino-4-{[(1R)-1-[1-benzyl-4-(2,5-difluorophenyl)-1H-pyrrol-2-yl]-2,2-dimethylpropyl}(glycoloyl)amino]butanoyl}-L-alanine/trifluoroacetic acid (1:1)] | 0.256 | 422 | – | – |
| Cc1ccc(C(=O)N(CCCN)[C@@H](c2cc(-c3cc(F)ccc3F)cn2Cc2ccccc2)C(C)(C)C)cc1 [Example 219, Trifluoroacetic acid/N-(3-aminopropyl)-N-{(1R)-1-[1-benzyl-4-(2,5-difluorophenyl)-1H-pyrrol-2-yl]-2,2-dimethylpropyl}-4-methylbenzamide (1:1)] | 1.13 | 3.48 | – | – |
| CSc1ccc(C(=O)N(CCCN)[C@@H](c2cc(-c3cc(F)ccc3F)cn2Cc2ccccc2)C(C)(C)C)cc1 [Example 220, Trifluoroacetic acid/N-(3-aminopropyl)-N-{(1R)-1-[1-benzyl-4-(2,5-difluorophenyl)-1H-pyrrol-2-yl]-2,2-dimethylpropyl}-4-(methylsulphanyl)benzamide (1:1)] | 1.45 | 0.197 | – | – |
| C[C@H](O)C(=O)N(CCCN)[C@@H](c1cc(-c2cc(F)ccc2F)cn1Cc1ccccc1)C(C)(C)C [Example 221, Trifluoroacetic acid/(2S)—N-(3-aminopropyl)-N-{(1R)-1-[1-benzyl-4-(2,5-difluorophenyl)-1H-pyrrol-2-yl]-2,2-dimethylpropyl}-2-hydroxypropanamide (1:1)] | 0.112 | 0.1 | – | – |
| CSCC(=O)N(CCCN)[C@@H](c1cc(-c2cc(F)ccc2F)cn1Cc1ccccc1)C(C)(C)C [Example 222, Trifluoroacetic acid/N-(3-aminopropyl)-N-{(1R)-1-[1-benzyl-4-(2,5-difluorophenyl)-1H-pyrrol-2-yl]-2,2-dimethylpropyl}-2-(methylsulphanyl)acetamide (1:1)] | 1.58 | 3.3 | – | – |
| C[C@H](O)C(=O)N(CCCN)[C@@H](c1nn(-c2cc(F)ccc2F)cc1Cc1ccccc1)C(C)(C)C [Example 223, Trifluoroacetic acid/(2S)—N-(3-aminopropyl)-N-{(1R)-1-[4-benzyl-1-(2,5-difluorophenyl)-1H-pyrazol-3-yl]-2,2-dimethylpropyl}-2-hydroxypropanamide (1:1)] | 0.289 | 0.0077 | – | – |
| COC(=O)CCC(=O)N(CCCN)[C@@H](c1cc(-c2cc(F)ccc2F)cn1Cc1ccccc1)C(C)(C)C [Example 224, Trifluoroacetic acid/methyl 4-[(3-aminopropyl){(1R)-1-[1-benzyl-4-(2,5-difluorophenyl)-1H-pyrrol-2-yl]-2,2-dimethylpropyl}amino]-4-oxobutanoate (1:1)] | 0.196 | 0.00337 | – | – |
| CC(C)(C)[C@H](c1cc(-c2cc(F)ccc2F)cn1Cc1ccccc1)N(CCCN)C(=O)CCC(=O)O [Example 225, 4-[(3-Aminopropyl) {(1R)-1-[1-benzyl-4-(2,5-difluorophenyl)-1H-pyrrol-2-yl]-2,2-dimethylpropyl}amino]-4-oxobutanoic acid/trifluoroacetic acid (1:1)] | 0.425 | 1.51 | – | – |
| CC(C)(C)[C@H](c1nn(-c2cc(F)ccc2F)cc1Cc1ccccc1)N(CCCN)C(=O)c1ccc(N)cc1 [Example 227, Trifluoroacetic acid/4-amino-N-(3-aminopropyl)-N-{(1R)-1-[4-benzyl-1-(2,5-difluorophenyl)-1H-pyrazol-3-yl]-2,2-dimethylpropyl}benzamide (2:1)] | 1.78 | 1.82 | – | – |
| CC(=O)N[C@@H](CSCC(=O)N(CCCN)[C@@H](c1cc(-c2cc(F)ccc2F)cn1Cc1ccccc1)C(C)(C)C)C(=O)O [Example 228, N-Acetyl-S-{2-[(3-aminopropyl){(1R)-1-[1-benzyl-4-(2,5-difluorophenyl)-1H-pyrrol-2-yl]-2,2-dimethylpropyl}amino]-2-oxoethyl}-L-cysteine/trifluoroacetic acid (1:1)] | 3.07 | 5.36 | – | – |
| CC(=O)N[C@@H](CSCC(=O)N(CCCNC(=O)[C@H](C)N)[C@@H](c1cc(-c2cc(F)ccc2F)cn1Cc1ccccc1)C(C)(C)C)C(=O)O [Example 229, N-acetyl-S-[2-([3-(L-alanylamino)propyl]{(1R)-1-[1-benzyl-4-(2,5-difluorophenyl)-1H-pyrrol-2-yl]-2,2-dimethylpropyl}amino)-2-oxoethyl]-L-cysteine/trifluoroacetic acid (1:1)] | 4.44 | ≥ 500 | – | – |
| CC(C)(C)[C@H](c1cc(-c2cc(F)ccc2F)cn1Cc1ccccc1)N(CCCN)C(=O)[C@@H]1CCCO1 [Example 230, Trifluoroacetic acid/(2S)—N-(3-aminopropyl)-N-{(1R)-1-[1-benzyl-4-(2,5-difluorophenyl)-1H-pyrrol-2-yl]-2,2-dimethylpropyl}tetrahydrofuran-2-carboxamide (1:1)] | 3.41 | 0.0121 | – | – |
| CC(C)(C)[C@H](c1cc(-c2cc(F)ccc2F)cn1Cc1ccccc1)N(CCCN)C(=O)CSCCC(=O)O [Example 231, 3-({2-[(3-Aminopropyl){(1R)-1-[1-benzyl-4-(2,5-difluorophenyl)-1H-pyrrol-2-yl]-2,2-dimethylpropyl}amino]-2-oxoethyl}sulphanyl)propanoic acid/trifluoroacetic acid (1:1)] | 1.67 | 0.918 | – | – |
| CC(C)(C)[C@H](c1cc(-c2cc(F)ccc2F)cn1Cc1ccccc1)N(CCCN)C(=O)c1ccc(N)cc1 [Example 233, Trifluoroactic acid/4-amino-N-(3-aminopropyl)-N-{(1R)-1-[1-benzyl-4-(2,5-difluorophenyl)-1H-pyrrol-2-yl]-2,2-dimethylpropyl}benzamide (2:1)] | 3.88 | 0.963 | – | – |
| CC(C)(C)[C@H](c1cc(-c2cc(F)ccc2F)cn1Cc1ccccc1)N(CC[C@H](N)C(=O)NCCCCCCN1C(=O)CC(SC[C@H](N)C(=O)O)C1=O)C(=O)CO (stereo partly drawn) [Example 249, S-{1-[6-({(2S)-2-Amino-4-[{(1R)-1-[1-benzyl-4-(2,5-difluorophenyl)-1H-pyrrol-2-yl]-2,2-dimethylpropyl}(glycoloyl)amino]butanoyl}amino)hexyl]-2,5-dioxopyrrolidin-3-yl}-L-cysteine/trifluoroacetic acid (1:1)] | 0.915 | 26.6 | – | – |
